Marks after values point to notes of the source that are not given here.
How the values were obtained:
[1] = system: Erythropoietin in liver cancer cells Hep3B; assay: Expression of erythropoietin in liver cancer cells Hep3B in vitro (EPO ELISA of supernatant); assay type: cell-based, Human
Procedure: The cells were adherent cultured overnight, and after discarding the used medium. In the 96-well culture plate, the cells were washed once with 0.5% FBS-containing DMEM medium. […] 0.5% FBS-containing DMEM medium was used instead of the drug solution as the control well. After incubation in a 37° C., 5% CO2 incubator for 24 h, the supernatant was taken as a sample and frozen at −20° C. for later use. An Elisa kit (abeam) was used to detect EPO in the cell supernatant. A microplate reader was used to detect the OD value at 450/620 nm.

reticulocytes = assay: Effect on reticulocytes of normal mice; assay type: in vivo, Balb/c mice; design: Reticulocytes (RETIC), average: unit not given here; settings: 10 mg/kg p.o., once; 72 h after administration
Procedure: 72 Balb/c mice, male, were divided into 12 groups, 6 mice in each treatment group. In the positive drug control groups: the mice in the FG-4592 treatment groups were orally administered once, at two doses of 10 mg/kg and 50 mg/kg, and the mice in the rhEPO treatment group was intraperitoneaily injected once, at a dose of 100 IU/kg. The compounds of the present disclosure were all orally administered once at a dose of 10 mg/kg. 72 h after the administration, blood was collected from the orbit of all animals, and subjected to EDTA-K2 anticoagulation. Then reticulocytes (RETIC) were counted with an automatic blood cell analyzer.

HIF-1α = assay: Expression of HIF-1α protein in Hep3B cells (western blot, grayscale analysis); assay type: cell-based, Human; settings: for fold induction at 30 µM: Homo sapiens, 2 h, compound at 30 μM, 10 μM and 3 μM, read-out: HIF-1α level of the compound of the present disclosure/HIF-1α level of blank control
Procedure: (§1) A test compound was dissolved in dimethyl sulfoxide into a 100 mM stock solution, and then was diluted with 0.5% FBS-containing DMEM medium into 30 μM, 10 μM and 3 μM for later use. Human liver cancer cells Hep3B were seeded in a six-well plate at a density of 2.25*10^5 cells/well, 2 mL per well. After cultivation overnight, the cells were treated with compounds at different concentrations for 2 h. The proteins were extracted for western blot and further grayscale analysis.

HIF-2α = assay: Expression of HIF-2α protein in Hep3B cells (western blot, grayscale analysis); assay type: cell-based, Human; settings: for fold induction at 30 µM: Homo sapiens, 2 h, compound at 30 μM, 10 μM and 3 μM, read-out: HIF-2α level of the compound of the present disclosure/HIF-2α level of blank control
Procedure: as §1

CYP1A2 = CYP1A2 (Homo sapiens (Human), UniProt P05177); assay type: in vitro ADME
Sequence of CYP1A2 (P05177 whole entry): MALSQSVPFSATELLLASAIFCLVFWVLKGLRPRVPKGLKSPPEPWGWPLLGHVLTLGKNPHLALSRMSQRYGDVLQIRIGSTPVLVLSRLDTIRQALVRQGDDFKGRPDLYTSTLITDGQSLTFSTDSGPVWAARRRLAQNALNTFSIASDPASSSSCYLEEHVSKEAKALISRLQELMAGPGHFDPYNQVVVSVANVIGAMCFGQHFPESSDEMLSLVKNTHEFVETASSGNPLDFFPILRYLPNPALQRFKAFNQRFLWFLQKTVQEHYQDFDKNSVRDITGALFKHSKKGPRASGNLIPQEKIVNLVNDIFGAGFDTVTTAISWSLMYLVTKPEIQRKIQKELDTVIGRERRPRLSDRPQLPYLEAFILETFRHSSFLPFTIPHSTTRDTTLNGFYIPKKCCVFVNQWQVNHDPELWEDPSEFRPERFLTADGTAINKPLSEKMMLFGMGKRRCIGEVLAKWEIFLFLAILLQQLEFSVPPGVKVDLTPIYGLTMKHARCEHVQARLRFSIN
Source text: (§2) The compounds of the present disclosure were subjected to the CYP450 enzyme inhibition assay.

CYP3A4-M = CYP3A4-M (Homo sapiens (Human), UniProt P08684); assay: CYP enzyme inhibition assay; assay type: in vitro ADME
Sequence of CYP3A4-M (P08684 whole entry): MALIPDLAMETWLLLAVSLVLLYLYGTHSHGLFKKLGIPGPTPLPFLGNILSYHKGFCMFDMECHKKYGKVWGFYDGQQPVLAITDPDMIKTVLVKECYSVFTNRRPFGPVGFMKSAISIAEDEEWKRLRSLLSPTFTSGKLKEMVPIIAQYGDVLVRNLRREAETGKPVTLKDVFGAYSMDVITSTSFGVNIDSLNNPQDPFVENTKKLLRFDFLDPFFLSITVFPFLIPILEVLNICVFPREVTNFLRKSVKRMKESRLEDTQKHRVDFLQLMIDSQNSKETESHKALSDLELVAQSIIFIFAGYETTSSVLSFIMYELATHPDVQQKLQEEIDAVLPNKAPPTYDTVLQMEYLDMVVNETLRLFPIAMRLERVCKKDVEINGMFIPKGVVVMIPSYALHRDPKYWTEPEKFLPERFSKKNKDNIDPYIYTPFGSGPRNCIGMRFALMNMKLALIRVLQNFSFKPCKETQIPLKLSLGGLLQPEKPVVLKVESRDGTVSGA
Source text: as §2

hERG channels = hERG channels (Homo sapiens (Human), UniProt Q12809); assay: cell-based; assay type: cell-based; settings: for Inhibitory effect on hERG current at the highest test concentration: human, 30 μM
Sequence of hERG channels (Q12809 whole entry, the tested form may be a part): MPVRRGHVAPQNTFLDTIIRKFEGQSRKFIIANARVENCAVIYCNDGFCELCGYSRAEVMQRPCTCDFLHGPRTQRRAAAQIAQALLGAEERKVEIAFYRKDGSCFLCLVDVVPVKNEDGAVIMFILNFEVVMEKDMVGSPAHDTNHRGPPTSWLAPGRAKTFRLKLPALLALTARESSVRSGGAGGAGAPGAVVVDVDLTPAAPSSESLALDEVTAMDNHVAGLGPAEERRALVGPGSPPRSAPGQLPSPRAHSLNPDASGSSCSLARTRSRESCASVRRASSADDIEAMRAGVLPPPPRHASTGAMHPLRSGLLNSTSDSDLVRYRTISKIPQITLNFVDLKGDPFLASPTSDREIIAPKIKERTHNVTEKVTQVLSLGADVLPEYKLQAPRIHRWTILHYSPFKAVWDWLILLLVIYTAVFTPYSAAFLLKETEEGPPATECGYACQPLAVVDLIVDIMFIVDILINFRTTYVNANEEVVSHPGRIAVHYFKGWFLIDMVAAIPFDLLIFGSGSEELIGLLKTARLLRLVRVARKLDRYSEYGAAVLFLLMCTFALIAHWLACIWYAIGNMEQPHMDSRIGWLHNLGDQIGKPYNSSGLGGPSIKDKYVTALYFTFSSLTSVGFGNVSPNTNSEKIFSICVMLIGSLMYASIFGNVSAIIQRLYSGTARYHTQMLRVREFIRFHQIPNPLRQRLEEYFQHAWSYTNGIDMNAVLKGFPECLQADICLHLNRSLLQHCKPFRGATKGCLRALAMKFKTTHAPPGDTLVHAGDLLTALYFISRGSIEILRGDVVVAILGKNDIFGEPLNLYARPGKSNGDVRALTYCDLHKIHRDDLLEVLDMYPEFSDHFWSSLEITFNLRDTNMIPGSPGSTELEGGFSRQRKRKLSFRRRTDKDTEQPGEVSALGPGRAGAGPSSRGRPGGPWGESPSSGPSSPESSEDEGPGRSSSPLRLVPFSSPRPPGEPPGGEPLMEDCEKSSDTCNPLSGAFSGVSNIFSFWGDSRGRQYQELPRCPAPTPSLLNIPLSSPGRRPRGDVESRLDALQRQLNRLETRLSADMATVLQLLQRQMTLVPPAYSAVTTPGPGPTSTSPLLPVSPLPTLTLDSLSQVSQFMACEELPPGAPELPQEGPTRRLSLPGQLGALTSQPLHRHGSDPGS
Procedure: Whole-cell patch clamp technique was used to record hERG current. A cell suspension was added to a 35 mm Petri dish, and the dish was then placed on an inverted microscope stage. After the adherence of cells, they were perfused with extracellular fluid at a flow rate of 1-2 mL/min. A glass microelectrode was drawn by a microelectrode puller in two steps, and the pipette tip resistance was between 2-5 MΩ. After establishing the whole cell recording, the clamp potential was held at −80 mV, followed by depolarization to +60 mV when given voltage stimulation and then repolarization to −50 mV to elicit hERG tail current. All recordings were performed after the current was stable. Extracellular perfusion administration started from a low concentration, staying for 5-10 min at each concentration until the current was stable, and then cells were further perfused with the next concentration.

[2] = system: rats with residual kidney; assay: SD rat residual kidney experiment; assay type: in vivo, SD rats; design: Hematocrit / Alanine aminotransferase / Glutamic-oxalacetic transaminase: unit not given here; settings: for Red blood cells / Alanine aminotransferase / Glutamic-oxalacetic transaminase / Hematocrit / Hemoglobin / Hepcidin: three times each week, 15 times, x ± sd; for Red blood cells: blood 24 hours after last administration; for Effect on glutamic-oxalacetic transaminase / Effect on liver glutamic-pyruvic aminotransferase: compared with the blank control group
Procedure: 79 SD rats were subjected to residual kidney surgery after anesthesia (left kidney was resected, one third of the right kidney was left, and the resected kidney part was weighed to confirm the surgical error). After 4 weeks, 45 surviving rats were subjected to blood cell dection and then assigned according to the HCT value 37 rats in good condition were selected and divided into the following groups: Link-118 (5, 10 mg/kg), Link-121 (5, 10 mg/kg), and FG-4592 (10 mg/kg), 6 rats in each treatment group, and 7 in the model group. 4 rats were assigned to the blank control group. The rats were administered three times each week (administered on Monday, Wednesday, and Friday), for 15 times, and blood was taken 24 hours after the last administration (tested by blood routine, blood biochemistry, hepcidin kit).

PHD2 = PHD2 (Homo sapiens (Human), UniProt Q9GZT9); assay: PHD enzyme assay (Eu-VBC TR-fluorescence); assay type: biochemical
Sequence of PHD2 (Q9GZT9 whole entry): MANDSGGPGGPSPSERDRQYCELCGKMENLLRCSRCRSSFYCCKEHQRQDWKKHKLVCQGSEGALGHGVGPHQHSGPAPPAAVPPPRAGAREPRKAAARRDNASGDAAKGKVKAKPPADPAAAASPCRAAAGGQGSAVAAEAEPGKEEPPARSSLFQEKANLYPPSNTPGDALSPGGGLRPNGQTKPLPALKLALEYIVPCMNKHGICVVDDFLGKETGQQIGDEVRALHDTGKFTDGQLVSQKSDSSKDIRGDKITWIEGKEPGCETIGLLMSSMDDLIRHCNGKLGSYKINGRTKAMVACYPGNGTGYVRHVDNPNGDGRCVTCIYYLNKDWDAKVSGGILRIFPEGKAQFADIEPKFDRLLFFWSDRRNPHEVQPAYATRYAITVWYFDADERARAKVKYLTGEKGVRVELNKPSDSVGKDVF
Procedure: VHL/elongin B/elongin C were constructed, expressed and purified, and VHL was labeled. PHD1, PHD2 and PHD3 were constructed, expressed and purified. VBC protein was labeled with DELFIA Eu-Labeling Kit. A NeutrAvidin 96-well plate was blocked after the addition of 200 μL Blocker Casein to each well, followed by incubation for 30 min. Each well was washed 3 times by adding 200 μL of washing buffer each time. […] Each well was washed 3 times by adding 200 μL of washing buffer each time. A 1 mM Biotin solution was prepared with Blocker Casein, and 100 μL of the solution was added to each well, followed by incubation for 30 min. Each well was washed 3 times by adding 200 μL of washing buffer each time. A 20× compound solution was prepared with PHD reaction buffer, with the final concentration of DMSO being 1%. […] After mixing homogeneously, the wells were incubated for 60 min. Each well was washed 3 times by adding 200 μL of washing buffer each time A 1 ng/μL Eu-VBC solution was prepared with Eu-VBC binding buffer, and 100 μL of the solution was added to each well, followed by incubation for 60 min. Each well was washed 6 times by adding 200 μL DELFIA Wash Concentrate each time. 100 μL DELFIA Enhancement Solution was added to each well. […] The flurescence of the sample wells was recorded as FLUsample, the flurescence of the full active wells was recorded as FLU100%, and the flurescence of the blank well was recorded as FLU0%.

erythropoietin = assay: Expression of erythropoietin in vivo (plasma EPO ELISA after single oral dose); settings: once; for EPO OD value: plasma 6 hours after administration; for Promotion of expression of erythropoietin in vivo: at 10 mg/kg;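 on all read-outs here: male C57 mice given compound by mouth, five animals per treatment group, with EPO in plasma measured by ELISA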
Procedure: (2) 30 c57 mice, male, were divided into 6 groups, 5 mice in each treatment group. […] 6 hours after the administration, blood was taken, and plasma was collected for EPO detection with an ELISA kit (R&D Co.).

Structure (SMILES) | EPO-enhancing effect compared with positive control drug FG4592 [1] | Reticulocytes (RETIC), average (reticulocytes) | HIF-1α protein expression compared with blank control (HIF-1α) | fold induction at 30 µM (HIF-1α) | HIF-2α protein expression compared with blank control (HIF-2α) | fold induction at 30 µM (HIF-2α) | IC50 (CYP1A2) | IC50 (CYP3A4-M) | IC50 (hERG channels) | Inhibitory effect on hERG current at the highest test concentration (hERG channels) | Red blood cells ([2]; 5 mg/kg) | Alanine aminotransferase ([2]; 5 mg/kg) | Glutamic-oxalacetic transaminase ([2]; 5 mg/kg) | Hematocrit ([2]; 5 mg/kg) | Hemoglobin ([2]; 5 mg/kg) | Hepcidin ([2]; 5 mg/kg) | Red blood cells ([2]; 10 mg/kg) | Alanine aminotransferase ([2]; 10 mg/kg) | Glutamic-oxalacetic transaminase ([2]; 10 mg/kg) | Hematocrit ([2]; 10 mg/kg) | also measured
O=C(O)CNC(=O)c1nc(Cl)c2nc(Oc3ccccc3)ccc2c1O [Link-118, 2-(2-phenoxy-5-hydroxy-8-chloro-1,7-naphthyridine-6-formamido) Acetic Acid] | higher than that of the positive control drug FG4592 | 8.62 | higher than that of the blank control | > 10 | higher than that of the blank control | 4.5 to 8.5 | > 50 µM | > 50 µM | > 30 µM | far from the IC50 value | 8.05 ± 0.46** 10^12/L | 37.83 ± 1.60 | 116.50 ± 14.43 | 45.88 ± 2.87 | 164 ± 10.99 g/L | 2.5808 ± 1.0573 ng/mL | 9.61 ± 1.06** 10^12/L | 35.50 ± 6.28 | 113.67 ± 2123 | 57.2 ± 6.67 | Promoting effect on HIF-1α expression compared with FG4592 (HIF-1α): stronger than that of the positive control drug FG4592; Hemoglobin ([2]; 10 mg/kg): 203.83 ± 22.83 g/L; Hepcidin ([2]; 10 mg/kg): 2.4472 ± 0.513 ng/mL; Effect on glutamic-oxalacetic transaminase [2]: no significant effect; Effect on liver glutamic-pyruvic aminotransferase [2]: no significant effect; Effect on HCT in rats with residual kidney ([2]; compared with the model group): significantly increase; Effect on HGB in rats with residual kidney ([2]; compared with the model group): significantly increase; Effect on RBC in rats with residual kidney ([2]; compared with the model group): significantly increase; Effect on hepcidin in rats with residual kidney ([2]; compared with the model group): significantly inhibit; Efficacy compared with FG-4592 at the same dose ([2]; rats with residual kidney): better than that of FG-4592; Effect on PHD2 compared with compounds of Comparative Examples 1-3 (PHD2): better effect; IC50 (PHD2): 207 nM; EPO OD value (erythropoietin; 10 mg/kg): D (D represents EPO OD value>3); EPO OD value (erythropoietin; 50 mg/kg): D (D represents EPO OD value>3); Promotion of expression of erythropoietin in vivo (erythropoietin): significantly promote the expression of erythropoietin
O=C(O)CNC(=O)c1nc(Br)c2nc(Oc3ccccc3)ccc2c1O [Link-121, 2-(2-phenoxy-5-hydroxy-8-bromo-1,7-naphthyridine-6-formamido) Acetic Acid] | higher than that of the positive control drug FG4592 | 7.28 | higher than that of the blank control | 4.5 to 8.5 | higher than that of the blank control | 4.5 to 8.5 | > 50 µM | > 50 µM | > 30 µM | far from the IC50 value | 7.68 ± 0.46 10^12/L | 56.40 ± 25.89 | 130.80 ± 3126 | 43 ± 2.26 | 150.60 ± 8.62 g/L | 2.8289 ± 0.7597 ng/mL | 8.12 ± 1.11 10^12/L | 47.5 ± 7.23 | 12125 ± 16.11 | 46.86 ± 629 | Hemoglobin ([2]; 10 mg/kg): 163.40 ± 24.44 g/L; Hepcidin ([2]; 10 mg/kg): 2.5494 ± 1.3532 ng/mL; Effect on glutamic-oxalacetic transaminase [2]: no significant effect; Effect on liver glutamic-pyruvic aminotransferase [2]: no significant effect; Effect on HCT in rats with residual kidney ([2]; compared with the model group): significantly increase; Effect on HGB in rats with residual kidney ([2]; compared with the model group): significantly increase; Effect on hepcidin in rats with residual kidney ([2]; compared with the model group): reduced; Effect on PHD2 compared with compounds of Comparative Examples 1-3 (PHD2): better effect; IC50 (PHD2): 353 nM; EPO OD value (erythropoietin; 10 mg/kg): C (C represents 2<EPO OD value<3); EPO OD value (erythropoietin; 50 mg/kg): D (D represents EPO OD value>3); Promotion of expression of erythropoietin in vivo (erythropoietin): significantly promote the expression of erythropoietin
